± gives the standard deviation of the averaged measurements.
Assays:
YST-1 [1] = assay: % inhibition of CellTiter-Glo viability at highest tested concentration (72 h), relative to DMSO and benzethonium chloride controls; higher = more inhibition
Procedure, shortened: (§1)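 Viability was scored by CellTiter-Glo ATP luminescence, scaled from vehicle to positive-control wells, with duplicates averaged where present. The cells, MPNST lines and primary human Schwann cells at 750–1000 per well, sat 72 h at 37 °C, 5% CO2, in 384-well plates preprinted with each compound at five concentrations in 10-fold steps. Four-parameter logistic fits were run on the data. These fits give drug sensitivity score and relative IC50 censored at the top concentration, and percent inhibition is reported at the top concentration.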

ST8814 [2] = assay: as above
Procedure, shortened: as §1

HS-Sch-2 [3] = assay: as above
Procedure, shortened: as §1

[4] = test system: HSC1 (primary human Schwann cells); assay: as above
Procedure, shortened: as §1

S462 [5] = assay: as above
Procedure, shortened: as §1

STS26T [6] = assay: as above
Procedure, shortened: as §1

S1507-2 [7] = assay: as above
Procedure, shortened: as §1

[8] = test system: HSC2 (primary human Schwann cells); assay: as above
Procedure, shortened: as §1

HS-PSS [9] = assay: as above
Procedure, shortened: as §1

YST-1 [10] = assay: drug sensitivity score (DSS, CellTiter-Glo viability, 72 h) (DSS (dimensionless)); higher = more sensitive; extreme values may be limits of the assay
Procedure, shortened: as §1

ST8814 [11] = assay: as above
Procedure, shortened: as §1

HS-Sch-2 [12] = assay: as above
Procedure, shortened: as §1

[13] = test system: HSC1 (primary human Schwann cells); assay: as above
Procedure, shortened: as §1

S462 [14] = assay: as above
Procedure, shortened: as §1

STS26T [15] = assay: as above
Procedure, shortened: as §1

S1507-2 [16] = assay: as above
Procedure, shortened: as §1

[17] = test system: HSC2 (primary human Schwann cells); assay: as above
Procedure, shortened: as §1

HS-PSS [18] = assay: as above
Procedure, shortened: as §1

ST8814 [19] = assay: drug sensitivity score (DSS, CellTox-Green cytotoxicity, 72 h) (DSS (dimensionless)); higher = more cytotoxic; extreme values may be limits of the assay
Procedure, shortened: (§2)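 MPNST cell lines and primary human Schwann cells were incubated 72 h at 37 °C in 384-well plates holding five 10-fold compound dilutions. CellTox-Green was added before seeding at a final 1:1000 dilution and reported fluorescence from DNA released by disrupted cells. Signals were scaled to vehicle and positive-control wells, and cultures failing plate quality control were dropped. Drug sensitivity score and relative IC50 come from four-parameter logistic fits, with IC50 censored at the top concentration.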

[20] = test system: HSC1 (primary human Schwann cells); assay: as above
Procedure, shortened: as §2

STS26T [21] = assay: as above
Procedure, shortened: as §2

S1507-2 [22] = assay: as above
Procedure, shortened: as §2

[23] = test system: HSC2 (primary human Schwann cells); assay: as above
Procedure, shortened: as §2

HS-PSS [24] = assay: as above
Procedure, shortened: as §2

| Compound | % inhibition (YST-1 [1]) | % inhibition (ST8814 [2]) | % inhibition (HS-Sch-2 [3]) | % inhibition [4] | % inhibition (S462 [5]) | % inhibition (STS26T [6]) | % inhibition (S1507-2 [7]) | % inhibition [8] | % inhibition (HS-PSS [9]) | drug sensitivity score (YST-1 [10]) | drug sensitivity score (ST8814 [11]) | drug sensitivity score (HS-Sch-2 [12]) | drug sensitivity score [13] | drug sensitivity score (S462 [14]) | drug sensitivity score (STS26T [15]) | drug sensitivity score (S1507-2 [16]) | drug sensitivity score [17] | drug sensitivity score (HS-PSS [18]) | drug sensitivity score (ST8814 [19]) | drug sensitivity score [20] | drug sensitivity score (STS26T [21]) | drug sensitivity score (S1507-2 [22]) | drug sensitivity score [23] | drug sensitivity score (HS-PSS [24]) |
| --- | --- | --- | --- | --- | --- | --- | --- | --- | --- | --- | --- | --- | --- | --- | --- | --- | --- | --- | --- | --- | --- | --- | --- | --- |
| CCN1CCN(c2ccc(Nc3cc(N(C)C(=O)Nc4c(Cl)c(OC)cc(OC)c4Cl)ncn3)cc2)CC1 [NVP-BGJ398] (max concentration tested 1000 nM) | 2.47% | 14.3% | 0.34% | 4.11% | 0.872 ± 0.61% | -2.71% | 6.59 ± 6.9% | 5.81% | 9.97% | 0 | 0.135 | 0 | 0 | 0 | 0 | 0.00445 ± 0.0063 | 0 | 0 | 0 | 0 | 0 | 0.143 ± 0.2 | 0 | 0 |
| COc1cc(Nc2ncc(F)c(Nc3ccc4c(n3)NC(=O)C(C)(C)O4)n2)cc(OC)c1OC [Tamatinib] (max concentration tested 10000 nM) | -0.14% | 11.9% | 13.4% | 37.9% | 4.27 ± 6.2% | 10.2% | -0.148 ± 3.2% | 36.1% | 9.72% | 0 | 0.365 | 0.4 | 5.11 | 0 | 0.0251 | 0 | 3.08 | 0 | 0.113 | 0 | 0.558 | 0.0129 ± 0.018 | 0.0662 | 0 |
| CS(=O)(=O)c1ccc(C2=C(c3ccccc3)C(=O)OC2)cc1 [Rofecoxib] (max concentration tested 10000 nM) | 1.11% | 3.44% | -5.42% | 2.15% | -1.92 ± 0.69% | -0.415% | 3.17 ± 6.5% | -0.797% | -0.36% | 0 | 0 | 0 | 0 | 0 | 0 | 0 | 0 | 0 | 0 | 0 | 0 | 0 | 0 | 0 |
| CC1(C)CCC(c2ccc(Cl)cc2)=C(CN2CCN(c3ccc(C(=O)NS(=O)(=O)c4ccc(N[C@H](CCN5CCOCC5)CSc5ccccc5)c(S(=O)(=O)C(F)(F)F)c4)cc3)CC2)C1 [Navitoclax] (max concentration tested 10000 nM) | 34.2% | 24.4% | 32.7% | 23.8% | 20.7 ± 5.9% | 11.3% | 47.8 ± 0.54% | 53.1% | 3.02% | 4.22 | 0.561 | 3.94 | 2.32 | 0.978 ± 0.8 | 0.0007 | 6.14 ± 0.43 | 5.16 | 0 | 5.52 | 5.42 | 3.15 | 16 ± 1.1 | 11.8 | 0 |

From the supplement of paper PMC5579334
